The values below come from paper PMC12077799, “Fragment-based drug discovery for transthyretin kinetic stabilisers using a novel capillary zone electrophoresis method” (PLOS One, 2025).

For orientation: IC50 means the concentration at which inhibition is half-maximal. Higher therefore signals a need for much substance.

The structures appear in SMILES notation. Where two headings read alike, the source gives them in different places.

For test [1], the target named is T1, TTR (Homo sapiens, UniProt P02766).
T1 construct: purchased SCIPAC (Sittingbourne, Kent, UK) P171-1
Kind of test: Isothermal titration calorimetry (ITC). The class given is binding. As to the method: All ITC experiments were conducted on an iTC200 calorimeter (GE Healthcare), and the settings were 25 °C, stir at 1000 RPM, 1–2 μL injection spaced with 100–150 seconds, reference power: 6 μcal/sec. Isotherms were fitted using ORIGIN 7 software (OriginLab, MA, USA). To prepare TTR ITC protein solution (5 mL), purified and freeze-dried human TTR was weighted and dissolved in 310 μL of pure water. The reconstituted protein solution was then desalted by spin column (Bio-Rad, Bio-Gel P6) and the eluted volume was transferred to a 15mL falcon tube. The protein solution was further diluted with 10x Phosphate Buffered Saline (PBS, 500 μL), DMSO (150 μL) and water, (f/c: 4.3 mM Na2HPO4, 137 mM NaCl, 2.7 mM KCl, 1.47 mM KH2PO4, 3% DMSO v/v, TTR 19.35–25 μM, pH 7.8). UV A260/280 was measured to obtain the actual protein concentration using a calculated extinction coefficient of 18450 M^-1 cm^-1. To prepare ligand ITC solution (1 mL), 30 μL of ligand stock in DMSO was diluted with 10x PBS (100 μL) and water (f/c: 4.3 mM Na2HPO4, 137 mM NaCl, 2.7 mM KCl, 1.47 mM KH2PO4, 3% DMSO v/v, Ligand 280–600 μM, pH 7.8).
On the technique in general: Isothermal titration calorimetry measures the heat released or taken up as one component is titrated into another.

In test [2] the target is T2, TTR in undiluted normal human reference plasma (Homo sapiens, UniProt P02766).
T2 construct: The TTR in plasma was immunoprecipitated by sheep anti-human prealbumin polyclonal antibody; tissue Precision Biologic Inc., Nova Scotia, Canada
Kind of test: 125I-T4 displacement assay in neat normal human plasma. The class given is binding. Conditions: neat normal human plasma; 4-parameter logistic fit. The source says: The assay was adapted from one described previously. Briefly, test ligand and ^125I-T4 (Perkin Elmer Inc., Waltham, MA) were mixed with undiluted normal human reference plasma (Precision Biologic Inc., Nova Scotia, Canada). The TTR in plasma was immunoprecipitated by sheep anti-human prealbumin polyclonal antibody (The Binding Site Group Ltd., Birmingham, UK). The immunoprecipitate was washed with buffer and their radioactivity measured with a 2470 WIZARD automatic gamma counter (Perkin Elmer Inc., Waltham, MA). […] Percentage of total radioligand binding for samples of different ligand concentration was then calculated as follows: […]
To calculate IC50 values, percentage of total radioligand binding at different concentration points were entered in SigmaPlot™ 11.0. Titration curves were done in triplicates with a minimum of 5 data points fitted by 4-Parameter Logistic Function.

The target of test [3] is T1, TTR. Nature of the test: Induced near-UV circular dichroism of ligand on TTR binding. The settings on record: induced CD signal 280–320 nm, TTR 13.62 μM. As to the method:
CD experiments were conducted in Diamond Light Source (Oxon, UK) beamline B23 installed with an Olis™ DSM 20 CD spectrophotometer. CD Buffer (10 mM Tris-HCl, 5 mM NaCl, pH 8.0) was prepared and loaded (450 μL) into a UV cuvette (10 mm path length). The near-UV (260–380 nm) CD spectrum of the solution was measured. 1 μL of SFL001535 10 mM DMSO stock was added into the cuvette and mixed by inversion. The CD spectrum of this solution was measured again. Contents of the cuvette containing SFL001535 in buffer were removed and the cuvette was washed with nitric acid. CD Buffer containing 13.62 μM of TTR was loaded into the cuvette and the near-UV CD spectrum of TTR was obtained (measured 10 times). A total of 8 μL of SFL001535 10 mM stock was added to the solution in 4 step additions (1 + 1 + 2 + 4 μL) and the CD spectrum were measured after each addition. The induced CD of SFL001535 was calculated by subtracting the CD spectrum of TTR alone.

Test [4] concerns the target T3, Human transthyretin (TTR) (Homo sapiens, UniProt P02766).
T3 construct: purchased SCIPAC (Sittingbourne, Kent, UK) P171-1
Kind of test: Co-crystallisation of TTR-ligand complex, X-ray hit confirmation. The class given is binding. Conditions: fragment seen in ligand-omitted difference density at >= 2σ in one or both binding sites; full or partial density. The procedure: Crystals were grown by vapor diffusion using a published crystallisation cocktail (100 mM HEPES pH 7.5, 200 mM CaCl2, 28% v/v PEG400) at 21 °C [29]. The hanging drop contained 1 μL of crystallisation cocktail, 1 μL of diluted ligand and 1 μL of TTR protein solution (85 μM). […] Crystals were harvested and flash cooled in a N2 cryostream or dipped into liquid ethane without cryoprotectant. Data was collected at Diamond Light Source (Oxon, UK) beamline I24, I04 or I04-1 (Pilatus 6M or ADSC Q315) or the European Synchrotron Radiation Facility (ESRF, Grenoble, France) beamline ID29 (Pilatus 6M-F) or in-house (Bruker X8 Diffractometer with APEXII CCD detector). Crystal unit cell was initially indexed by software MOSFLM [30] and LABELIT [31] within the EDNA [32] automatic data processing workflow. Diffraction image integration was performed by XDS [33] and reflection intensities were scaled by SCALA [34] or by PROTEUM2 if collected in-house. Phases were obtained by molecular replacement method using PHASER [35], 1DVQ from the Protein Data Bank (PDB) was used as the search model. Atomic positions of the initial model were refined by REFMAC5 [36]. Model building and ligand fitting was completed using COOT [37]. Model graphics were generated using CCP4MG [38]. Crystallographic statistics of all structures can be found in S4 Table.

Setting [5] is: N = number of non-hydrogen atoms.

On to `c1ccc2c(-c3cn[nH]c3)ccnc2c1` [SFL001535, 4-(3H-pyrazol-4-yl)quinoline], for which the Kd at TTR [1] (25 °C, PBS pH 7.8, 3% DMSO, read-out: ITC Kd1 ± SD (N = 3)) was found to be 260 nM; at TTR [1] (25 °C, PBS pH 7.8, 3% DMSO, read-out: ITC Kd2 ± SD (N = 3)), 1960 nM; on TTR [1] (Fig 8 isotherm, ± standard error of curve fitting, read-out: ITC Kd1 of shown isotherm) it was 260 ± 88.2 nM. For the same molecule, the “Kd1 LE (Ligand Efficiency, ΔG/N)” value at TTR [1] (setting [5]) was determined as 0.60 kcal/mol. Moreover, the “Kd2 LE (Ligand Efficiency, ΔG/N)” value on TTR [1] (setting [5]) was 0.52 kcal/mol. In test [2], this molecule showed an IC50 of 34500 ± 12400 nM. In addition, the “binding to TTR by induced CD” value on TTR [3] was “confirmed”. Besides, in test [4], the “Confirmed by X-ray” value is “Yes 9H7I”.
